Structures can show the parent of a compound that is named as a salt. Where two headings read alike, the source gives them in different places.

In one assay the target is T1, human Aurora A (Homo sapiens, UniProt O14965).
T1 construct: His (N); made in house; host or cells: Escherichia coli BL21-CodonPlus(DE3)-RIL
T1 sequence (O14965 1-403): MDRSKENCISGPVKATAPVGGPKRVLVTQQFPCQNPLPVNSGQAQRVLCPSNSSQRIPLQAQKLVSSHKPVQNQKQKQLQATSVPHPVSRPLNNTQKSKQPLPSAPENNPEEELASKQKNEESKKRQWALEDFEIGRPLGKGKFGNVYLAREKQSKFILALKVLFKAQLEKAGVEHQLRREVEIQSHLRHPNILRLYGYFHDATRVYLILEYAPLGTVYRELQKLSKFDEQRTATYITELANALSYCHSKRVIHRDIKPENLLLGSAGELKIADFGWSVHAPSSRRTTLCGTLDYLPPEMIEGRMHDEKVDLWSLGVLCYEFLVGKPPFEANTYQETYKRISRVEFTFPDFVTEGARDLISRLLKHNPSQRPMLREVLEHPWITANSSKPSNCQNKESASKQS
Nature of the assay: Aurora A inhibitory activity (IMAP fluorescence polarization phosphorylation assay). It counts as biochemical. Particulars: 20 μM ATP, 30° C., 120 minutes. In general terms: Fluorescence polarisation rises when a labelled molecule tumbles more slowly, as on binding a larger partner.

The target of assay [1] is T2, GST-tagged human Aurora B(AurB)/His-tagged human INCENP complex proteins (Homo sapiens, UniProt Q96GD4).
T2 construct: GST; purchased Carna Biosciences, Inc
T2 sequence (Q96GD4 whole entry): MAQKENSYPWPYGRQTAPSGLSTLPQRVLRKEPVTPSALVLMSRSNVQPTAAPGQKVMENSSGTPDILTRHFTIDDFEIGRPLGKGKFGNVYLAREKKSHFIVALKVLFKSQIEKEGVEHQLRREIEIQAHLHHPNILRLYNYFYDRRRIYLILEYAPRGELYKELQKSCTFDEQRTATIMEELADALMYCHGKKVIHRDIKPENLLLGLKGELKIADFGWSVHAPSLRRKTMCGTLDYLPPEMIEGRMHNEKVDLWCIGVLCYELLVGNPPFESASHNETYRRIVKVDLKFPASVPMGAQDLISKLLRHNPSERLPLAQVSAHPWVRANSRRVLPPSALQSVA
T2 sequence (Q9NQS7 803-916 partner limits assumed): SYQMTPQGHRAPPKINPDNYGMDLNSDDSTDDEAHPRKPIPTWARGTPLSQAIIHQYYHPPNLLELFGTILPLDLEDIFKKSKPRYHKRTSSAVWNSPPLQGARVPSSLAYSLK
Nature of the assay: Aurora B inhibitory activity (Method A, IMAP assay kit). The assay is classed as biochemical. To be noted: 40 μM ATP, 25° C., 45 minutes.

For assay [2], the system named is Human cervical cancer cells (HeLa S3). Description: Cell growth inhibitory effect, WST-8 method. To be noted: HeLa S3, three days incubation, read-out: Cell growth inhibitory effect (HeLaS3) (IC50). The assay is classed as cell-based. The method, then: Fetal calf serum (FCS) was purchased from Moregate Biotech, and DMEM medium was purchased from Invitrogen Corp. WST-8 was purchased from Kishida Chemical Co., Ltd.
(§1) Human cervical cancer cells (HeLa S3) were obtained from the American Type Culture Collection (ATCC).
Cells were suspended in a DMEM medium containing 10% FCS, and the cell suspension was dispensed to a 96-well plastic plate at a rate of 750 cells/100 microliters per well. The plate was incubated overnight in 5% CO2-95% air at 37° C. A drug was subjected to graded dilution in dimethylsulfoxide and further diluted with a DMEM medium containing 10% FCS. Then, the dilution was dispensed to the plate on which cells had been disseminated in advance, at a rate of 100 microliters per well. The plate was incubated for further three days in 5% CO2-95% air at 37° C. Cell growth after incubation was measured by the WST-8 method (H. Tominaga, et al., Anal. Commun., 36, 47-50 (1999)). Here, the WST-8 method refers to a method in which 20 microliters of a WST-8 reagent solution is added to each well, incubation is conducted at 37° C. for 60 minutes, the plate is stirred, and the amount of formazan produced is measured by a […] method to determine the inhibitory rate of the drug.
A general note: Tetrazolium assays rely on reduction of a dye to a coloured formazan, in cell work by metabolically active cells.

The test system is the same in assay [3]. Description: Effect by combined use of drugs in cells (docetaxel), WST-8 method. Particulars: HeLa S3, three days; for inhibition at 1 µM: compound 1.0 μM alone; for inhibition at 3 µM: compound 3.0 μM alone. It counts as cell-based. The method, then: Fetal calf serum (FCS) was purchased from Moregate Biotech, DMEM medium from Invitrogen Corp., docetaxel (tradename: Taxere) from Sigma-Aldrich, Inc., and WST-8 from Kishida Chemical Co., Ltd.
as §1
Cells were suspended in a DMEM medium containing 10% FCS, and the cell suspension was dispensed to two 96-well plastic plates at a rate of 750 cells/100 microliters per well. The plates were incubated overnight in 5% CO2-95% air at 37° C. A drug was subjected to graded dilution in dimethylsulfoxide and further diluted with DMSO or with a DMEM medium containing 10% FCS and also containing 0.6 nM docetaxel. Then, the dilutions were each dispensed to one of the plates on which cells had been disseminated in advance, at a rate of 100 microliters per well. The final concentration of docetaxel at this stage was 0.3 nM. Also, the concentrations in the case of sole administration of the compound according to the invention were 0.003, 0.01, 0.03, 0.1, 0.3, 1, 3 and 10 μM. The plates were incubated for further three days in 5% CO2-95% air at 37° C. Cell growth after incubation was measured by the WST-8 method (H. Tominaga, et al., Anal. Commun., 36, 47-50 (1999)). Here, the WST-8 method refers to a method in which 20 microliters of a WST-8 reagent solution is added to each well, incubation is conducted at 37° C. for 60 minutes, the plate is stirred, and the amount of formazan produced is measured by a colorimetric method to determine the inhibitory rate of the drug. The growth inhibitory effects of docetaxel and of the compound according to the invention were determined, with the value obtained in sole treatment of DMSO being defined as 0%.

[4] abbreviates: Homo sapiens, HeLa S3, 72 h, compound 0.1 μM alone, read-out: Cell growth inhibitory effect by sole administration of the compound of Example (%).
Where [5] appears, read: compound 0.1 μM + docetaxel 0.3 nM.
Where [6] appears, read: Homo sapiens, HeLa S3, 72 h, compound 0.3 μM alone, read-out: Cell growth inhibitory effect by sole administration of the compound of Example (%).
Where [7] appears, read: Homo sapiens, HeLa S3, 72 h, read-out: Cell growth inhibitory effect by sole administration of the compound of Example (%).
Setting [8] is: compound 0.3 μM + docetaxel 0.3 nM.
Setting [9] is: compound 1.0 μM + docetaxel 0.3 nM.
Where [10] appears, read: compound 3.0 μM + docetaxel 0.3 nM.

Take `O=c1[nH]nc([C@]2(Cc3cccc(Nc4cc[nH]n4)n3)CC[C@@H]([S+]([O-])c3cccc(Cl)c3Cl)CC2)o1` (stereo partly drawn) [Example 35, 5-(trans-4-((2,3-dichlorophenyl)sulfinyl)-1-((6-(1H-pyrazol-3-ylamino)pyridin-2-yl)methyl)cyclohexyl)-1,3,4-oxadiazol-2(3H)-one trifluoroacetate]: the IC50 (in general, the concentration at which inhibition is half-maximal) against human Aurora A was found to be 0.31 nM; in assay [1] it was 120 nM; in assay [2] (Homo sapiens, 72 h), 220 nM. Further, the inhibition at 0.03 µM in assay [3] (Homo sapiens, HeLa S3, 72 h, compound 0.03 μM alone, read-out: Cell growth inhibitory effect by sole administration of the compound of Example (%)) worked out at 25.1%. Besides, in assay [3] (setting [4]), the inhibition at 0.1 µM is 42.7%. Further, the “Cell growth inhibitory effect by combined administration of docetaxel and the compound of Example (%)” value in assay [3] (compound 0.03 μM + docetaxel 0.3 nM) amounted to 78.0%; in assay [3] (setting [5]), 89.9%.

With `O=c1[nH]nc([C@]2(Cc3cccc(Nc4cc[nH]n4)n3)CC[C@@H](Oc3cccc(C(F)(F)F)c3F)CC2)o1` [Example 20, 5-(trans-4-(2-fluoro-3-(trifluoromethyl)phenoxy)-1-((6-(1H-pyrazol-3-ylamino)pyridin-2-yl)methyl)cyclohexyl)-1,3,4-oxadiazol-2(3H)-one], the IC50 on human Aurora A is 1 nM; in assay [1], 660 nM; in assay [2] (Homo sapiens, 72 h), 900 nM. The inhibition at 0.3 µM in assay [3] (setting [6]) was 25.9%. Moreover, the inhibition at 1 µM in assay [3] (setting [7]) is 49.8%. The “Cell growth inhibitory effect by combined administration of docetaxel and the compound of Example (%)” value was 85.0% in assay [3] (setting [8]) and 94.4% in assay [3] (setting [9]).

As for `O=c1[nH]nc([C@]2(Cc3cccc(Nc4cc[nH]n4)n3)CC[C@@H](S(=O)(=O)c3cccc(Cl)c3Cl)CC2)o1` [Example 36, 5-(trans-4-((2,3-dichlorophenyl)sulfonyl)-1-((6-(1H-pyrazol-3-ylamino)pyridin-2-yl)methyl)cyclohexyl)-1,3,4-oxadiazol-2(3H)-one trifluoroacetate], the IC50 at human Aurora A came out at 0.43 nM; in assay [1], 370 nM; in assay [2] (Homo sapiens, 72 h), 1130 nM. Further, the inhibition at 0.1 µM in assay [3] (setting [4]) is 2.6%. For the same compound, the inhibition at 0.3 µM in assay [3] (setting [6]) turned out to be 32%. Besides, the “Cell growth inhibitory effect by combined administration of docetaxel and the compound of Example (%)” value in assay [3] (setting [5]) was 76.8%; in assay [3] (setting [8]), 88.9%.

`O=C(O)[C@]1(Cc2cccc(Nc3nccs3)n2)CC[C@@H]([S+]([O-])c2cccc(Cl)c2Cl)CC1` (stereo partly drawn) [Example 31, trans-4-((2,3-dichlorophenyl)sulfinyl)-1-((6-(1,3-thiazol-2-ylamino)pyridin-2-yl)methyl)cyclohexanecarboxylic acid trifluoroacetate]: the IC50 against human Aurora A was 0.19 nM; in assay [1] it was 53 nM; in assay [2] (Homo sapiens, 72 h) it was 5890 nM. Further, in assay [3] (setting [7]), the inhibition at 1 µM was found to be 1%. Also, the inhibition at 3 µM in assay [3] (setting [7]) was found to be 38.5%. Further, the “Cell growth inhibitory effect by combined administration of docetaxel and the compound of Example (%)” value in assay [3] (setting [9]) was 75.1%; in assay [3] (setting [10]), 89.0%.

Turning to `NC(=O)[C@]1(Cc2cccc(Nc3nccs3)n2)CC[C@@H](Oc2cccc(Cl)c2F)CC1` [Example 8, trans-4-(3-chloro-2-fluorophenoxy)-1-((6-(1,3-thiazol-2-ylamino)pyridin-2-yl)methyl)cyclohexanecarboxamide], the IC50 at human Aurora A was 0.54 nM; in assay [1] it was 150 nM; in assay [2] (Homo sapiens, 72 h) it was 1260 nM. Besides, the inhibition at 0.3 µM in assay [3] (setting [6]) was found to be 12.2%. In addition, the inhibition at 1 µM in assay [3] (setting [7]) came to 49%. For the same compound, the “Cell growth inhibitory effect by combined administration of docetaxel and the compound of Example (%)” value in assay [3] (setting [8]) came to 84.6%; in assay [3] (setting [9]), 95.0%.

Regarding `NC(=O)[C@]1(Cc2cncc(Nc3cc[nH]n3)n2)CC[C@@H](Oc2cccc(Cl)c2F)CC1` [Example 15, trans-4-(3-chloro-2-fluorophenoxy)-1-((6-(1H-pyrazol-3-ylamino)pyrazin-2-yl)methyl)cyclohexanecarboxamide], the IC50 against human Aurora A was determined as 2 nM; in assay [1], 870 nM; in assay [2] (Homo sapiens, 72 h) it was 1760 nM. Further, the inhibition at 0.3 µM in assay [3] (setting [6]) was 17%. For the same compound, the inhibition at 1 µM in assay [3] (setting [7]) worked out at 42.4%. The “Cell growth inhibitory effect by combined administration of docetaxel and the compound of Example (%)” value in assay [3] (setting [8]) is on record as 76.4%; in assay [3] (setting [9]), 90.8%.

Regarding `O=C(O)[C@]1(Cc2cccc(Nc3cc[nH]n3)n2)CC[C@@H](Oc2cccc(C(F)(F)F)c2F)CC1` [Example 9, trans-4-(2-fluoro-3-(trifluoromethyl)phenoxy)-1-((6-(1H-pyrazol-3-ylamino)pyridin-2-yl)methyl)cyclohexanecarboxylic acid trifluoroacetate], the IC50 at human Aurora A amounted to 0.16 nM; in assay [1] it was 190 nM; in assay [2] (Homo sapiens, 72 h) it was 2210 nM. In addition, in assay [3] (setting [7]), the inhibition at 1 µM was found to be 37.1%. Also, the inhibition at 3 µM in assay [3] (setting [7]) was 59%. The figures for the “Cell growth inhibitory effect by combined administration of docetaxel and the compound of Example (%)” value in assay [3] (setting [9]) and in assay [3] (setting [10]) were 91.8% and 95.0%, respectively.

On to `Fc1c(Cl)cccc1O[C@H]1CC[C@](Cc2cccc(Nc3cc[nH]n3)n2)(c2n[nH]c(=S)o2)CC1` [Example 24, 5-(trans-4-(3-chloro-2-fluorophenoxy)-1-((6-(1H-pyrazol-3-ylamino)pyridin-2-yl)methyl)cyclohexyl)-1,3,4-oxadiazole-2(3H)-thione], for which the IC50 against human Aurora A was determined as 0.12 nM; in assay [1] it was 130 nM; in assay [2] (Homo sapiens, 72 h) it was 1150 nM. Further, in assay [3] (setting [4]), the inhibition at 0.1 µM amounted to 0.5%. In assay [3] (setting [6]), the inhibition at 0.3 µM is 25.4%. The “Cell growth inhibitory effect by combined administration of docetaxel and the compound of Example (%)” value stood at 72.8% in assay [3] (setting [5]) and 87.8% in assay [3] (setting [8]).

Turning to “5-(trans-4-(3-chloro-2-fluorophenoxy)-1-((6-(1H-pyrazol-3-ylamino)pyrazin-2-yl)methyl)cyclohexyl)-1,3,4-oxadiazol-2(3H)-one [Example 29]”, the IC50 at human Aurora A was 0.19 nM; in assay [1], 670 nM; in assay [2], 670 nM. Also, the “Cell growth inhibitory effect by combined administration of docetaxel and the compound of Example (%)” value in assay [3] (setting [5]) was 79.0%; in assay [3] (setting [8]), 92.9%. Further, the “Cell growth inhibitory effect by sole administration of the compound of Example (%)” value in assay [3] (compound 0.1 μM alone) was determined as 11.3%; in assay [3] (compound 0.3 μM alone) it was 39.9%.

(Values after patent US20100016335A1, “NOVEL AMINOPYRIDINE DERIVATIVES HAVING AURORA A SELECTIVE INHIBITORY ACTION” (priority 2006, published 2010).)
